Earlier results, collected in US20060134226A1, “Compositions useful to treat ocular neovascular diseases and macular degeneration” (priority 2004, published 2006).

How the values were obtained:
[1] = in vivo
[2] = oral dose of 600 mg tid, long periods of time, patients with chronic bronchitis and emphysema
[3] = consumed daily
[4] = about 200 mg dosage of zinc per day
[5] = test system: macular degeneration changes; conditions: 80 mg of zinc, versus placebo
[6] = not given; remark: listed apart in the source
[7] = in vivo; remark: listed apart in the source

CC(=O)Oc1c(C)c(C)c2c(c1C)CC[C@@](C)(CCC[C@H](C)CCC[C@H](C)CCCC(C)C)O2 (racemic) [dl-alpha tocopheryl acetate]
level at which no adverse effects have been observed [1]: ≤ 800 mg

CC(=O)N[C@@H](CS)C(=O)O [NAC, N-acetylcysteine]
dose excreted in the urine (after 24 hours): approximately 22% | mean plasma half-life (humans): about 1.35 hours | absorption of radiolabelled NAC (humans, one hour after administration): rapidly absorbed | tolerability [2]: well tolerated

O=C1O[C@H]([C@@H](O)CO)C(O)=C1O [vitamin C, ascorbic acid]
daily intake without any known adverse effects [3]: ≥ 1,000 mg

[Zn] [zinc]
side effects [4]: potential side effects such as anemia | retarding macular degeneration changes [5]: significantly better than placebo

beta carotene [beta-carotene]
risk among male smokers ([6]; 20 mg/day of beta-carotene): increased risk of lung cancer | risk in men with previous myocardial infarction ([6]; 20 mg/day of beta-carotene): increased risk of fatal coronary heart attacks | dosage level with no observed adverse effects ([6]; healthy, non-smokers): ≤ 25 mg per day | efficiency of conversion to vitamin A in the body [7]: approximately 50%
